“And” between values parts separate entries of the source, which are not always exact repeats. Identical values can stand only once. Some results are limits rather than exact numbers.

As usually defined, the IC50 is the midpoint of a concentration-inhibition curve. In general, NOAEL refers to the highest dose or exposure tested at which no adverse effect was seen. The term half-life denotes the time in which the quantity being followed falls by half. A low value points to rapid decline. The term Tmax denotes the time at which the peak concentration occurs.

For data set [1], the system named is ovarian, prostate and lung cancer cells. Description: Broad cytotoxic activity. The class given is cell-based. The note with it: Homo sapiens, summary over ovarian. An excerpt: Activity in pancreatic and colorectal cancer cells and glioblastoma cells was more variable (Table 1).
The test system of data set [2] is disseminated ovarian cancer model. The data set is described as follows: Disseminated ovarian cancer model, intraperitoneal dosing. In kind it is in vivo, mice. The text has this:
In vivo, TRX-E-002-1, formulated in 20% SBECD, was active in a disseminated ovarian cancer model and a recurrent ovarian cancer model in which tumour recurrence is investigated following initial treatment of the OCSC2-inoculated mice with paclitaxel. In both models, TRX-E-002-1 inhibited tumour growth following once daily intraperitoneal administration.
The combination of TRX-E-002-1 and cisplatin was investigated in the murine model of disseminated ovarian cancer.

In data set [3] the test system is hERG single mutant (hERG-SM). The data set is described as follows: Surface expression of hERG single mutant. The settings on record: 0.1-10 μM. In kind it is cell-based, human. On the procedure:
However, at concentrations of 0.1-10 μM, the drug increased surface expression of the hERG single mutant (hERG-SM), identifying it as a potential blocker of hERG channel activity. […] Potential cardiovascular responses to intraperitoneal injection of TRX-E-002-1 were investigated in a GLP-compliant telemetry study in beagle dogs. Four male dogs received vehicle (20% SBECD) or TRX-E-002-1 (1, 10 or 30 mg/kg) on four separate occasions in a Latin Square design. Blood pressure, heart rate, ECG parameters and body temperatures were continuously recorded from 30 min before dosing until at least 24 h after each dose.

Data set [4] has as its system CYP2C9, CYP2C8, CYP2C19, CYP2B6, CYP3A4, CYP2D6, CYP2A6 and CYP1A2. The data set is described as follows: Inhibition of cytochrome P450 enzymes in human hepatic microsomes. The class given is in vitro ADME. The note with it: liver microsomes, read-out: IC50 values, range over the CYP enzymes. An excerpt:
The potential for pharmacokinetic drug interactions resulting from inhibition of drug-metabolizing cytochrome P450 enzymes was investigated in human hepatic microsomes in vitro. TRX-E-002-1 inhibited multiple cytochrome P450 drug-metabolizing enzymes, including CYP2C9, CYP2C8, CYP2C19, CYP2B6, CYP3A4, CYP2D6, CYP2A6 and CYP1A2. […] In particular, the potential interaction between Cantrixil and paclitaxel, a CYP2C9 substrate frequently used in the treatment of ovarian cancer, needs to be considered.
A general note: Microsomes from liver hold many membrane-bound enzymes, among them those of drug oxidation.

Data set [5] is described as follows: Second dog pharmacokinetic study, 10 mg/kg intraperitoneal, four dogs. The note with it: 10 mg/kg i.p. In kind it is in vivo, beagle dogs. How it is done: In beagle dogs, plasma concentrations of unconjugated TRX-E-002-1 at early time points (1–4 h’ post-dose) were 76–93% of the total levels (parent + glucuronide). At 8 h, the plasma concentrations of the glucuronide metabolites were similar to those of parent drug. By 24 h’ post-dose, the concentrations of TRX-E-002-1-glucuronide in plasma and gastrointestinal tissues (except colon) were 2–12 times higher than those of the parent drug. The increased levels of TRX-E-0021-glucuronide relative to those of parent drug at 24 h post-dose may reflect slower elimination of the glucuronide metabolites.

Data set [6] is described as follows: Excretion study in rats, single intraperitoneal injection. In kind it is in vivo, female Sprague–Dawley rats. The note with it: 100 mg/kg i.p. How it is done: Excretion of TRX-E-002-1 was investigated in female Sprague–Dawley rats that received a single intraperitoneal injection of TRX-E-002-1 100 mg/kg in 20% SBECD. High levels of parent drug were measured in urine up to 24 h after dosing and in faeces up to 48 h after dosing. The glucuronide conjugate, measured as the increase in TRX-E-002-1 following treatment of the samples with beta-glucuronidase, was found at levels similar to those of parent drug in faeces (rectal contents) up to 2 h after dosing, but was barely detectable in urine. Total amounts of parent drug and glucuronide excreted in faeces and urine were not calculated, so that the relative contributions of renal and biliary excretion pathways cannot be evaluated.

Data set [7] can be described thus: Dog GLP 28-day repeat-dose study, intraperitoneal three times per week. The class given is in vivo, beagle dogs. On the procedure:
For the dog GLP 28-day repeat-dose study, beagle dogs received intraperitoneal injections of vehicle (3:20 dilution of 20% SBECD in 0.9% saline) or Cantrixil (1, 10 or 30 mg/kg) three times per week for 4 weeks via an implanted catheter. Blood samples were collected from all dogs at 0.25, 0.5, 1, 2, 4 and 24 h after dosing on Days 1 and 26. […] Mean C max and AUClast values were similar in males and females and were greater than proportional to dose. […] Corresponding mean AUClast values on Day 1 were 71.4/80.5, 2810/2260 and 10,500/11,000 ng h/mL, respectively, for males/females.
Treatment-related clinical signs observed in males and females at 10 or 30 mg/kg included emesis, and soft or liquid faeces. […] Food consumption was affected to a lesser extent in females at 30 mg/kg and was not associated with discernible effect on body weight gain.
Similar changes were apparent but less severe in high-dose males and females after the 2-week recovery period. Coagulation parameters, serum chemistry, urinalysis and bone marrow examinations were unremarkable.
Red discoloration in the caecum was also observed in all male dogs and one female dog in the 30 mg/kg group. […] No treatment-related macroscopic abnormalities were observed after the recovery period.
In summary, the main toxicity findings following intraperitoneal administration of TRX-E-002-1 30 mg/kg in SBECD to beagle dogs three times per week for 4 weeks were emesis, soft and/or liquid faeces, leukocytosis with elevated neutrophil and monocyte counts, red discoloration in the caecum and degenerative changes in male reproductive organs. Some of these effects were also observed at the mid-dose of 10 mg/kg, while 1 mg/kg was a clear no-effect dose. […] No differences between sexes were apparent in toxic effects or systemic exposure, and the NOAEL for combined sexes was 10 mg/kg. The 10 mg/kg dose was also considered the highest non-severely toxic dose (HNSTD), and mean plasma AUClast for combined sexes at this dose was 2310 ng h/mL on Day 26.

The test system of data set [8] is Escherichia coli strain WP2uvrA. The data set is described as follows: Bacterial reverse mutation test, plate assay. In kind it is cell-based. The settings on record: absence or presence of S9 mix. How it is done: (§1) The assays were performed in compliance with GLP regulations.
(§2) The bacterial reverse mutation test employed Salmonella typhimurium strains TA1535, TA1537, TA98 and TA100, and Escherichia coli strain WP2uvrA in a conventional plate assay, with and without exogenous metabolic activation by a rat liver post-mitochondrial fraction (S9 mix).

The test system of data set [9] is Salmonella typhimurium strains TA1535, TA1537, TA98 and TA100. Description: Bacterial reverse mutation test, plate assay. In kind it is cell-based. The note with it: absence or presence of S9 mix. How it is done:
as §1, §2

A short description of data set [10]: Dog 14-day pilot toxicity study with toxicokinetics, intraperitoneal. The settings on record: both, beagle, dog, plasma.
Procedure: For the dog 14-day pilot study, male and female beagle dogs were dosed once daily with intraperitoneal injections of vehicle (1:2 dilutions of 20% SBECD in 0.9% saline) or Cantrixil (10, 30 or 100 mg/kg) for 14 days. The doses were administered via an implanted catheter.

As to `COc1cc([C@@H]2COc3c(ccc(O)c3C)[C@@H]2c2ccc(O)cc2)cc(OC)c1O` [TRX-E-002-1, (+) cis-4-(para-hydroxyphenyl)-7,4′-dihydroxy-3′,5′-dimethoxy-8-methylisoflavan], the IC50 is not above 100 nM in data set [1]; 1.5 µM to 75 µM and 0.612 µg/mL to 30.6 µg/mL in data set [4]. Moreover, the tumour growth result in data set [2] (100 mg/kg i.p. once daily in 20% SBECD for 13–14 days) was “significantly inhibited”. Further, the “tumour growth during the 16-day treatment period” value in [2] (TRX-E-002-1 100 mg/kg once daily, cisplatin 5 mg/kg once weekly, or both) was “significantly inhibited”. Moreover, in data set [2] (after 16-day treatment, TRX-E-002-1 100 mg/kg once daily, cisplatin 5 mg/kg once weekly, or both), the “tumour growth during the 5-week post-treatment period” value was “decreased”. In addition, the “surface expression of hERG-SM” value in data set [3] is “increased”. In data set [5], the “TRX-E-002-1 levels by 72 h” value is on record as “close to or below the limit of quantification”. In addition, the Kp at 24 h in data set [5] (beagle, dog, gastrointestinal tissues, ip, 24 h after dosing, read-out: concentrations in gastrointestinal tissues relative to plasma) is not below 30. Moreover, the “parent drug in urine” value in data set [6] (up to 24 h after dosing) was “High levels”. In data set [6] (up to 48 h after dosing), the “parent drug in faeces” value is “High levels”. Further, in [7] (Day 26 vs Day 1), the “accumulation with three times weekly dosing” value is on record as “no accumulation”. Besides, the NOAEL at 4 weeks in data set [7] (both sexes, beagle, dog, in vivo, intraperitoneal, combined sexes) came to 10 mg/kg; in [7] (female, beagle, dog, in vivo, intraperitoneal, females), 30 mg/kg; in data set [7] (male, beagle, dog, in vivo, intraperitoneal, males), 10 mg/kg. The AUC(0-t) in data set [7] (both sexes, beagle, dog, plasma, intraperitoneal, combined sexes, 10 mg/kg, Day 26, read-out: mean plasma AUClast) stood at 2310 ng·h/mL. This compound came in with a clear no-effect dose in [7] (dog, in vivo) of 1 mg/kg. Moreover, the “highest non-severely toxic dose (HNSTD)” value in data set [7] (dog, in vivo) came out at 10 mg/kg. The “number of revertant colonies” value in [8] and in [9] was “no significant increases” each time. For the same compound, the half-life in data set [10] (intraperitoneal) lay in the range of 2 to 2.7 h. Moreover, the Tmax in data set [10] (ip, 100 mg/kg) was 0.5 to 2 h.

(Values after paper PMC5306062, “Pharmacology and toxicology of the novel investigational agent Cantrixil (TRX-E-002-1)” (Cancer Chemotherapy and Pharmacology, 2016).)
